Assay results reported in patent publication US11247976B2, “Synthetic ligands that modulate the activity of the RhlR quorum sensing receptor” (Wisconsin Alumni Research Foundation, priority 2016, dated 2022).
Entries after “also recorded” stand apart in the source; their conditions may differ.

Experiments:
RhlR = target: T1, RhlR (Pseudomonas aeruginosa, UniProt P54292); assay: E. coli RhlR reporter antagonism assay vs 10 μM BHL (JLD271/pJN105R2/pSC11-rhlI*); type: cell-based, P. aeruginosa; settings: for inhibition at 10 µM: read-out: % inhibition (10 μM), compound at 10 μM in the presence of 10 μM BHL; for inhibition at 10 µM / inhibition at 1000 µM: negative = agonism stronger than 10 μM BHL alone; for inhibition at 1000 µM: read-out: % inhibition (1 mM), compound at 1 mM in the presence of 10 μM BHL
T1 construct: expressed in transfected cells; host or cells: E. coli JLD271 (ΔsdiA) with pJN105R2 (arabinose-induced) and pSC11-rhlI*

[1] = Hydrolytic stability in buffers of varying pH by HPLC; type: physicochemical; settings: room temperature
Protocol: To assess the relative stability of the thiolactone and homoserine lactone moieties, stability studies were performed as reported previously,^53 with the following changes. Compounds RN22 and E22 (50 μM) were dissolved in either 1 mM 2-(N-morpholino)-ethanesulfonic acid (MES) buffer at pH 6, or 1 mM tris(hydroxymethyl)-aminomethane (TRIS) buffer at pH 7, pH 8, or pH 9. Solutions were placed static at room temperature, and 150 μL aliquots were taken every two hours for eight hours, then again at 24 hours. Samples were immediately separated via HPLC, and the area under the curve (AUC) at 220 nm was calculated and compared to the area at t=0. […] Degradation of both compounds to the hydrolysis product was confirmed via mass spectrometry of the resulting byproduct peak.
P. aeruginosa media is observed to become more alkaline over time, making the hydrolytic instability of the homoserine lactone head group a concern in developing AHL-type modulators for use in the wild-type organism. […] To evaluate their stability in a more direct assay, the stability of thiolactone RN22 relative to its lactone homolog E22 was monitored over time and at varying pH values using HPLC. The amount of compound RN22 remaining over 24 h was compared to E22. […] Degradation products were confirmed to be the hydrolyzed lactone head groups via mass spectroscopy.

T1 sequence (P54292 whole entry): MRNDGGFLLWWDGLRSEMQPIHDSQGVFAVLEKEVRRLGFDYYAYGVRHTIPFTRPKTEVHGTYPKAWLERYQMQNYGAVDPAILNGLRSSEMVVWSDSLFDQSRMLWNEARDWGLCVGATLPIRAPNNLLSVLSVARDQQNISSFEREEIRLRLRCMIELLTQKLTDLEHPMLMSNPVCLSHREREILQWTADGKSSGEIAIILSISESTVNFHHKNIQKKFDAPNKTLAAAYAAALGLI

Row | SMILES | inhibition at 10 µM (RhlR) | inhibition at 1000 µM (RhlR) | half-life at 50 μM ([1]; pH 6, 1 mM MES buffer) | half-life at 50 μM ([1]; pH 7, 1 mM TRIS buffer) | half-life at 50 μM ([1]; pH 8, 1 mM TRIS buffer) | half-life at 50 μM ([1]; pH 9, 1 mM TRIS buffer) | RhlR antagonist activity in words (RhlR; E. coli reporter vs 10 μM BHL) | Maximum Inhibition (%) (RhlR; E. coli reporter, relative to activation of 10 μM BHL alone)
1 | O=C(N[C@H]1CCCC1=O)C1CCC1 [RN12] | -39% | -98% |  |  |  |  |  | 
2 | O=C(COc1ccc(I)cc1)N[C@H]1CCSC1=O [RN22] | 28% |  | 44 days | 47.2 days | 9.88 days | 2.18 days | potent antagonist activity; also recorded: activity comparable to previously identified compound E22 | 81%
3 | CC(C)CC(=O)N[C@H]1CCCC1=O [RN36] | -35% | -122% |  |  |  |  |  | 
4 | CC(C)CC(=O)N[C@H]1CCSC1=O [RN37] | -59% | -81% |  |  |  |  |  | 
